The test system of data set [1] is syngeneic murine tumours or human tumour xenografts. As to conditions: mouse, in vivo; cited from earlier work.
In a further data set the test system is human tumours. As to conditions: monotherapy, cited from earlier work.
The nature of another data set: Hygroscopicity. The class given is physicochemical. As to conditions: sodium salt.
A short description of data set [2]: Storage under controlled relative humidity (solid form stability). The data set is classed as physicochemical. From the text:
A high relative humidity is here defined as a relative humidity of about 70 to 90%. […] In particular, the water content can be well controlled and remains constant, over time.

Data set [3] is described as follows: Dynamic Vapour Sorption (DVS) experiment. The class given is physicochemical. As to conditions: 25° C. How it is done:
DVS: Dynamic vapour sorption measurements were carried out with an instrument of Surface Measurement Systems (http:www.smsuk.co.uk). The weight change of the investigated sample is monitored while the relative humidity is changed over a range from 0% r.h. to 95% r.h. at a change rate of 5% per hour.
About 10 mg of a mixture of forms B and C is placed into a suitable sample pan and investigated with a dynamic vapour sorption apparatus of Surface Measurement Systems, DVS-1 (series 1000) using software version DVS win SP2, V3.01 at 25° C. The initial relative humidity is 50% and the initial mass is 100%, thereafter the humidity is increased to 95% and kept at this level for 2 hours, then the humidity is decreased to 0%, and kept at 0% during 10 hours, then raised again to 95%. Change rates are always 5% per hour.

[4] abbreviates: 52% relative humidity, ambient temperature, about two weeks.

Where a name gives a salt, the structure may show the parent alone.

Take `Cc1ccc2c(=O)c3cccc(CC(=O)O)c3oc2c1C` [DMXAA]: the “antivascular activity, tumour blood flow” value in data set [1] was “prolonged inhibition of tumour blood flow leading to extensive regions of haemorrhagic necrosis”. Besides, in the data set with human tumours (phase I trials), the tumour responses entry was “few tumour responses were achieved”. The tumour blood flow entry in the data set on human tumours (well-tolerated doses, dynamic MRI) is “significant reduction in tumour blood flow”.
With `Cc1ccc2c(=O)c3cccc(CC(=O)O)c3oc2c1C` [amorphous DMXAA sodium salt, DMXAA sodium salt, reference compound], the hygroscopicity result in the data set “Hygroscopicity” is “very hygroscopic”.
On to `Cc1ccc2c(=O)c3cccc(CC(=O)O)c3oc2c1C` [form E, DMXAA sodium salt], for which the hygroscopicity result in “Hygroscopicity” is reported as “hygroscopic”.
For the compound `Cc1ccc2c(=O)c3cccc(CC(=O)O)c3oc2c1C` [form F, DMXAA sodium salt], in data set [2] (setting [4]), the “change of the crystal form on storage” value is recorded as “did not lead to a change of the crystal form” and the “water content after storage” value is on record as “about 3%”. Further, the “form conversion on storage” value in data set [2] (75% relative humidity at 40° C.) was “transforms into form B within a few days”. For the same compound, the “form conversion on storage” value in data set [2] (open container, 75% relative humidity, about 34 hours) is listed as “transformed into form B”. In addition, the hygroscopicity result in the data set “Hygroscopicity” was “hygroscopic”.
Consider `Cc1ccc2c(=O)c3cccc(CC(=O)O)c3oc2c1C` [form L, DMXAA sodium salt], for which, in “Hygroscopicity”, the hygroscopicity result is recorded as “hygroscopic”.
With `Cc1ccc2c(=O)c3cccc(CC(=O)[O-])c3oc2c1C.[Na+]` [mixture of forms B and C, DMXAA sodium salt], the water adsorbed result in data set [3] (at 95% r.h.) is recorded as “about 1%”. In addition, the water release entry in data set [3] (scanning r.h. to 0%) is “all the water is released”.

These data come from patent US20100286254A1 (ANTISOMA RESEARCH LIMITED, priority 2007, published 2010).
